Like-named read-outs stand apart in the source and are kept apart here. Bounds are passed on as bounds.

One data set is described as follows: in vivo. To be noted: mouse.
Data set [1] concerns COLI. Nature of the data set: Inhibiting minimum concentration (I.M.C.), activity relative to trimethoprime, MULLER HINTON COLI MEDIUM 4. The format is cell-based. To be noted: for % activity with respect to the base: ratio of I.M.C. to trimethoprime; for % activity to the base corrected by molecular weight: ratio to trimethoprime. As to the method:
(§1) The antibacterial activity of the derivatives according to the invention were tested in vitro by determining the inhibiting minimum concentrations (I.M.C.) on different germs.

Data set [2] has as its system COLI. Put plainly: Inhibiting minimum concentration (I.M.C.), activity relative to trimethoprime, OXOIDE COLI MEDIUM 4. The format is cell-based. The note with it: for % activity with respect to the base: ratio of I.M.C. to trimethoprime; for % activity with respect to the base corrected by molecular weight: ratio to trimethoprime. Here is the method:
as §1

The next data set deals with BACIL PUMILUS. Nature of the data set: Inhibiting minimum concentration (I.M.C.), activity relative to trimethoprime, MULLER HINTON BACIL PUMILUS MEDIUM. To be noted: for % activity with respect to the base: ratio of I.M.C. to trimethoprime; for % activity with respect to the base corrected by molecular weight: ratio to trimethoprime. The format is cell-based. Here is the method: as §1

Data set [3] is described as follows: Solubility in water / pH of aqueous solutions. To be noted: pH value. The format is physicochemical.
A further data set deals with bacteria. To be noted: Gram-positive cocci, Gram-negative cocci and Gram negative bacilli; cited from earlier work.
In another data set the test system is dehydrofolate-reductase. To be noted: cited from earlier work.

For `COc1cc(Cc2cnc(NC(c3ccco3)S(=O)(=O)O)nc2N)cc(OC)c1OC` (stereo not shown) [Example 19], the LD50 is 900 mg/kg in “in vivo” (iv, read-out: LD 50 I.V.) and more than 12500 mg/kg in the data set “in vivo” (po, read-out: LD 50 by mouth). Further, the “% activity with respect to the base” value in the data set with COLI [1] was 69.4%; with COLI [2] it was 58.4%; with BACIL PUMILUS, 49.5%. Also, in the data set with COLI [1], the “% activity to the base corrected by molecular weight” value (shortened to “% activity to the base corrected”) is 112%. Also, the “% activity with respect to the base corrected by molecular weight” value with COLI [2] amounted to 95%; with BACIL PUMILUS, 80%.
For the compound `COc1cc(Cc2cnc(NC(c3ccccn3)S(=O)(=O)O)nc2N)cc(OC)c1OC` (stereo not shown) [Example 22, N2 2-Pyridyl Methane Sulfonic Acid of 5-(3,4,5-Trimethoxy Benzyl) 2,4-Diamino Pyrimidine], the “pH at which the derivative is insoluble” value in data set [3] turned out to be 5.6.
For the compound `COc1cc(Cc2cnc(NC(c3ccc4c(c3)OCO4)S(=O)(=O)O)nc2N)cc(OC)c1OC` (stereo not shown) [Example 18, N2 (3,4-Dioxy Methylene Phenyl) Methane Sulfonic Acid of 2,4-Diamino 5-(3,4,5-Trimethoxy Benzyl) Pyrimidine], the LD50 in the data set “in vivo” (po, read-out: LD 50 by mouth) was more than 12000 mg/kg. For the same compound, the “% activity with respect to the base” value in the data set with COLI [1] came out at 14.85%; in the data set with COLI [2] it was 27%; in the data set with BACIL PUMILUS, 21.4%. The “% activity to the base corrected” value with COLI [1] worked out at 26%. For the same compound, the “% activity with respect to the base corrected by molecular weight” value in the data set with COLI [2] was 48%; in the data set with BACIL PUMILUS it was 38%.
Turning to `COc1ccccc1C(Nc1ncc(Cc2cc(OC)c(OC)c(OC)c2)c(N)n1)S(=O)(=O)O` (stereo not shown) [Example 15, N2 (2-Methoxy Phenyl) Methane Sulfonic Acid of 2,4-Diamino 5-(3,4,5-Trimethoxy Benzyl) Pyrimidine], the LD50 in “in vivo” (iv, read-out: LD 50 I.V.) was 1000 mg/kg; in “in vivo” (po, read-out: LD 50 by mouth), more than 12000 mg/kg. The “% activity with respect to the base” value in the data set on COLI [1] amounted to 47%; in the data set on COLI [2], 64%; in the data set with BACIL PUMILUS, 60%. The “% activity to the base corrected” value in the data set with COLI [1] is reported as 73%. The “% activity with respect to the base corrected by molecular weight” value in the data set on COLI [2] amounted to 107%; with BACIL PUMILUS, 106%.
Take `COc1cc(Cc2cnc(N)nc2N)cc(OC)c1OC` [Trimethoprime, 5-(3,4,5-trimethoxybenzyl) 2,4diamino pyrimidine]: the “antibacterial activity (words, prior art)” value in the data set with bacteria is on record as “very wide-spectrum antibacterial agent”. The “interference with dehydrofolate-reductase (words, prior art)” value in the data set with dehydrofolate-reductase was “interferes with dehydrofolate-reductase”.
Take `COc1cc(Cc2cnc(NC(C(C)(C)C)S(=O)(=O)O)nc2N)cc(OC)c1OC` (stereo not shown) [Example 5, N2 (2,2-Dimethyl) Propane Sulfonic Acid of 2,4-Diamino 5-(3,4,5-Trimethoxy Benzyl) Pyrimidine]: in the data set with COLI [1], the “% activity with respect to the base” value is 23.3% and the “% activity to the base corrected” value came out at 37%. In the data set on COLI [2], the “% activity with respect to the base” value was 18.4% and the “% activity with respect to the base corrected by molecular weight” value was 29%. For the same compound, in the data set with BACIL PUMILUS, the “% activity with respect to the base” value is on record as 19.4% and the “% activity with respect to the base corrected by molecular weight” value stood at 30%.
Take `CCOc1cc(C(Nc2ncc(Cc3cc(OC)c(OC)c(OC)c3)c(N)n2)S(=O)(=O)O)ccc1O` (stereo not shown) [Example 24b, N2 (3-Ethoxy 4-Hydroxy) Phenyl Methane Sulfonic Acid of 5-(3,4,5-Trimethoxy Benzyl) 2,4-Diamino Pyrimidine]: the “% activity with respect to the base” value in the data set on COLI [1] worked out at 43.9%; with COLI [2] it was 48.7%; in the data set on BACIL PUMILUS, 42.2%. Besides, the “% activity to the base corrected” value with COLI [1] turned out to be 84%. Besides, the “% activity with respect to the base corrected by molecular weight” value is on record as 93% in the data set on COLI [2] and 79% in the data set on BACIL PUMILUS.
In the case of `COc1cc(Cc2cnc(NC(c3ccccc3)S(=O)(=O)O)nc2N)cc(OC)c1OC` (stereo not shown) [Example 8, N2 Phenyl Methane Sulfonic Acid of 2,4-Diamino 5-(3,4,5-Trimethoxy Benzyl) Pyrimidine], in the data set on COLI [1], the “% activity with respect to the base” value is given as 10.2% and the “% activity to the base corrected” value was determined as 16.4%. In addition, in the data set with COLI [2], the “% activity with respect to the base” value stood at 13.3% and the “% activity with respect to the base corrected by molecular weight” value was 21%. Further, in the data set with BACIL PUMILUS, the “% activity with respect to the base” value was 18.4% and the “% activity with respect to the base corrected by molecular weight” value is 26%.
In the case of `COc1cc(Cc2cnc(NC(c3ccccc3O)S(=O)(=O)O)nc2N)cc(OC)c1OC` (stereo not shown) [Example 25f, N2 (2-HYDROXY) PHENYL METHANE SULFONIC ACID OF 5-(3,4,5-TRIMETHOXY BENZYL) 2,4-DIAMINO PYRIMIDINE], in the data set on COLI [1], the “% activity with respect to the base” value is 55.4% and the “% activity to the base corrected” value is listed as 120%. For the same compound, in the data set on COLI [2], the “% activity with respect to the base” value came out at 38.3% and the “% activity with respect to the base corrected by molecular weight” value is recorded as 84%. Further, in the data set with BACIL PUMILUS, the “% activity with respect to the base” value turned out to be 73.1% and the “% activity with respect to the base corrected by molecular weight” value stood at 159%.
Take `COc1cccc(C(Nc2ncc(Cc3cc(OC)c(OC)c(OC)c3)c(N)n2)S(=O)(=O)O)c1` (stereo not shown) [Example 16, N2 (3-Methoxy Phenyl) Methane Sulfonic Acid 2,4-Diamino 5-(3,4,5-Trimethoxy Benzyl) Pyrimidine]: the results for the “% activity with respect to the base” value with COLI [1], with COLI [2] and in the data set on BACIL PUMILUS were 16.8%, 13.2% and 10.7%, respectively. Moreover, the “% activity to the base corrected” value in the data set on COLI [1] came out at 29%. Further, the “% activity with respect to the base corrected by molecular weight” value with COLI [2] was determined as 23%; with BACIL PUMILUS it was 19%.
In the case of `COc1cc(Cc2cnc(NC(c3ccccc3[N+](=O)[O-])S(=O)(=O)O)nc2N)cc(OC)c1OC` (stereo not shown) [Example 14, N2 (2-Nitro Phenyl) Methane Sulfonic Acid of 2,4-Diamino 5-(3,4,5-Trimethoxy Benzyl) Pyrimidine], in the data set with COLI [1], the “% activity with respect to the base” value was found to be 13.9% and the “% activity to the base corrected” value is 25%. In the data set with COLI [2], the “% activity with respect to the base” value is on record as 10.6% and the “% activity with respect to the base corrected by molecular weight” value is given as 19%. Moreover, in the data set on BACIL PUMILUS, the “% activity with respect to the base” value is 11.0% and the “% activity with respect to the base corrected by molecular weight” value is listed as 20%.
`COc1cc(Cc2cnc(NC(C(C)C)S(=O)(=O)O)nc2N)cc(OC)c1OC` (stereo not shown) [Example 4, N2 (2-Methyl) Propane Sulfonic Acid of 2,4-Diamino 5-(3,4,5-Trimethoxy Benzyl) Pyrimidine]: in the data set with COLI [1], the “% activity with respect to the base” value stood at 14.1% and the “% activity to the base corrected” value was found to be 22%. Besides, in the data set with COLI [2], the “% activity with respect to the base” value was 12.9% and the “% activity with respect to the base corrected by molecular weight” value stood at 20%. Further, in the data set on BACIL PUMILUS, the “% activity with respect to the base” value came to 11.8% and the “% activity with respect to the base corrected by molecular weight” value is on record as 18%.
For the compound `CCOc1cc(C(Nc2ncc(Cc3cc(OC)c(OC)c(OC)c3)c(N)n2)S(=O)(=O)O)ccc1O` (stereo not shown) [Example 24f, N2 (3-Ethoxy 4-Hydroxy) Phenyl Methane Sulfonic Acid of 5-(3,4,5-Trimethoxy Benzyl) 2,4-Diamino Pyrimidine], the LD50 in the data set “in vivo” (iv, read-out: LD 50 I.V.) was 1000 mg/kg; in “in vivo” (po, read-out: LD 50 by mouth), more than 12000 mg/kg. Besides, the “% activity with respect to the base” value with COLI [1] worked out at 40.3%; in the data set on COLI [2], 27.4%; in the data set on BACIL PUMILUS, 31.8%. Further, the “% activity to the base corrected” value in the data set with COLI [1] came out at 92%. The “% activity with respect to the base corrected by molecular weight” value in the data set on COLI [2] amounted to 63%; with BACIL PUMILUS, 73%.
With `CCC(CC)C(Nc1ncc(Cc2cc(OC)c(OC)c(OC)c2)c(N)n1)S(=O)(=O)O` (stereo not shown) [Example 7, N2 (2-Ethyl) Butane Sulfonic Acid of 2,4-Diamino 5-(3,4,5-Trimethoxy Benzyl) Pyrimidine], in the data set on COLI [1], the “% activity with respect to the base” value is on record as 15.5% and the “% activity to the base corrected” value amounted to 25%. In the data set on COLI [2], the “% activity with respect to the base” value was found to be 14% and the “% activity with respect to the base corrected by molecular weight” value was determined as 23%. For the same compound, in the data set with BACIL PUMILUS, the “% activity with respect to the base” value was 14% and the “% activity with respect to the base corrected by molecular weight” value is on record as 23%.

(Values after US4415574A, “Soluble N2 substituted derivatives of 2,4-diamino 5-benzyl pyrimidine, process for their preparation and medicaments containing them” (S. A. Panmedica, priority 1981, dated 1983).)
